Test results published in PMC3356383, “Efficacious Intermittent Dosing of a Novel JAK2 Inhibitor in Mouse Models of Polycythemia Vera” (PLoS ONE, 2012).
Marks after values point to notes of the source that are not given here.

Tests used:
ACK1 = assay: Kinase profiling (Millipore); assay type: biochemical; conditions: IC50s measured at ATP Km, fold increase relative to JAK2
Protocol: (§1) Kinase profiling was conducted by Millipore (Billerica, MA).
(§2) Supplementary file pone.0037207.s003.doc: Table S1 Recombinant Kinase Selectivity Profile of MRLB-11055. IC50s measured at ATP Km, and fold increase relative to JAK2 is reported. (DOC) Click here for additional data file.

ARK5 = assay: Kinase profiling (Millipore); assay type: biochemical; conditions: IC50s measured at ATP Km, fold increase relative to JAK2
Protocol: as §1, §2

Arg = assay: Kinase profiling (Millipore); assay type: biochemical; conditions: IC50s measured at ATP Km, fold increase relative to JAK2
Protocol: as §1, §2

BTK = assay: Kinase profiling (Millipore); assay type: biochemical; conditions: IC50s measured at ATP Km, fold increase relative to JAK2
Protocol: as §1, §2

Bmx = assay: Kinase profiling (Millipore); assay type: biochemical; conditions: IC50s measured at ATP Km, fold increase relative to JAK2
Protocol: as §1, §2

CaMKIIγ = assay: Kinase profiling (Millipore); assay type: biochemical; conditions: IC50s measured at ATP Km, fold increase relative to JAK2
Protocol: as §1, §2

CaMKIIδ = assay: Kinase profiling (Millipore); assay type: biochemical; conditions: IC50s measured at ATP Km, fold increase relative to JAK2
Protocol: as §1, §2

Fgr = assay: Kinase profiling (Millipore); assay type: biochemical; conditions: IC50s measured at ATP Km, fold increase relative to JAK2
Protocol: as §1, §2

Flt3 = assay: Kinase profiling (Millipore); assay type: biochemical; conditions: IC50s measured at ATP Km, fold increase relative to JAK2
Protocol: as §1, §2

Fms = assay: Kinase profiling (Millipore); assay type: biochemical; conditions: IC50s measured at ATP Km, fold increase relative to JAK2
Protocol: as §1, §2

Fyn = assay: Kinase profiling (Millipore); assay type: biochemical; conditions: IC50s measured at ATP Km, fold increase relative to JAK2
Protocol: as §1, §2

Hck = assay: Kinase profiling (Millipore); assay type: biochemical; conditions: IC50s measured at ATP Km, fold increase relative to JAK2
Protocol: as §1, §2

Lck = assay: Kinase profiling (Millipore); assay type: biochemical; conditions: IC50s measured at ATP Km, fold increase relative to JAK2
Protocol: as §1, §2

Lyn = assay: Kinase profiling (Millipore); assay type: biochemical; conditions: IC50s measured at ATP Km, fold increase relative to JAK2
Protocol: as §1, §2

MLK1 = assay: Kinase profiling (Millipore); assay type: biochemical; conditions: IC50s measured at ATP Km, fold increase relative to JAK2
Protocol: as §1, §2

PRK2 = assay: Kinase profiling (Millipore); assay type: biochemical; conditions: IC50s measured at ATP Km, fold increase relative to JAK2
Protocol: as §1, §2

PTK5 = assay: Kinase profiling (Millipore); assay type: biochemical; conditions: IC50s measured at ATP Km, fold increase relative to JAK2
Protocol: as §1, §2

Ret = assay: Kinase profiling (Millipore); assay type: biochemical; conditions: IC50s measured at ATP Km, fold increase relative to JAK2
Protocol: as §1, §2

TrkA = assay: Kinase profiling (Millipore); assay type: biochemical; conditions: IC50s measured at ATP Km, fold increase relative to JAK2
Protocol: as §1, §2

TrkB = assay: Kinase profiling (Millipore); assay type: biochemical; conditions: IC50s measured at ATP Km, fold increase relative to JAK2
Protocol: as §1, §2

Yes = assay: Kinase profiling (Millipore); assay type: biochemical; conditions: IC50s measured at ATP Km, fold increase relative to JAK2
Protocol: as §1, §2

cSRC = assay: Kinase profiling (Millipore); assay type: biochemical; conditions: IC50s measured at ATP Km, fold increase relative to JAK2
Protocol: as §1, §2

[1] = system: JAK2V617F-Luciferase expressing cells; assay: Bone marrow transplant mice expressing JAK2V617F-Luciferase (PV model); assay type: in vivo
Protocol: Production of retrovirus containing cDNA of JAK2 V617F fused to luciferase 2 was performed as described previously as was transplantation of bone marrow cells infected with virus into irradiated mice.
Imaging of mice expressing JAK2 V617F-Luciferase was conducted as described previously.
Measurement of the level of JAK2 V617F allele in the tissues of transplanted mice was done as described previously.
(§3) Cells were stained in PBS, 0.5% BSA with antibodies for 15 min on ice. Stained cells were acquired on a 4-laser LSR-II (BD Biosciences) and data analyzed using FlowJo software (Treestar). Dead cells were labeled with the blue fluorescent LIVE/DEAD reactive dye (Invitrogen) and excluded from the analysis.

spleen cell populations = assay: Cell populations in spleen of normal mice; assay type: in vivo; conditions: 54 mpk; for Spleen B-Cells B220+ / Spleen Cell Count / Spleen Myeloid Gr-1+ CD11b+ / Spleen NK-Cells NK1.1+ NKG2D+ / Spleen T-Cells CD4+ / Spleen T-Cells CD8+ / Spleen T-Cells Tregs CD25+CD127^lo / Spleen Weight / Spleen B-Cells MZ-B-cells CD21^hiCD23^lo: normal mice
Protocol: as §3
Monoclonal antibodies (anti-mouse): CD3, CD4, CD5, CD8, CD11b, CD19, CD21/35, CD23, CD25, CD43, CD44, CD49b, CD69, CD71, CD93, CD117, B220, GR-1, IgD, NK1.1, NKG2A/C/E, NKG2D, Ter119 were purchased from BD Biosciences; CD4, CD8, CD49b, CD62L, TCRβ, TCRγδ from eBioscience; GR-1 from Invitrogen; CD43 from Miltenyi Biotec. Goat anti-mouse IgM-FITC, (μ chain specific) from Jackson Immuno Research.
JAK2 and its family members JAK1 and JAK3 are known to signal downstream of cytokines that play essential roles in the development of lymphoid cell populations. To examine more thoroughly the effects of JAK2 inhibition on lymphoid cells, we analyzed wild-type (C57BL/6) mice treated with 54 mpk MRLB-11055 for 3 days, 6 days or up to 5 cycles of 3 days (“on”) followed by a 4 day holiday (“off”).
Supplementary file pone.0037207.s004.doc: Table S2 Effect of MRLB-11055 on Cell Populations in Spleen of Normal Mice. Cell counts measured by Advia. Cycles refer to 3 days of treatment followed by a 4 day holiday. *p<0.05 in Student T test when comparing vehicle 5 cycle with treatment 5 cycle and vehicle 2 cycle with treatment 2 cycle, resp. (DOC) Click here for additional data file.

[2] = 6 days of continuous treatment, wild-type C57BL/6 mice
[3] = 2 cycles (3 days treatment, 4 day holiday)
[4] = 5 cycles (3 days treatment, 4 day holiday)

## NC(=O)c1cnc(N[C@H](C2CC2)C(F)(F)F)c2c1[nH]c1cc(-c3cnc(N)nc3)ccc12 [MRLB-11055]
ACK1
  Fold-Shift /JAK2, ACK1: 2 fold
ARK5
  Fold-Shift /JAK2, ARK5: 6 fold
Arg
  Fold-Shift /JAK2, Arg: 17 fold
BTK
  Fold-Shift /JAK2, BTK: 7 fold
Bmx
  Fold-Shift /JAK2, Bmx: 4 fold
CaMKIIγ
  Fold-Shift /JAK2, CaMKIIγ: 11 fold
CaMKIIδ
  Fold-Shift /JAK2, CaMKIIδ: 10 fold
Fgr
  Fold-Shift /JAK2, Fgr: 5 fold
Flt3
  Fold-Shift /JAK2, Flt3: 3 fold
Fms
  Fold-Shift /JAK2, Fms: 2 fold
Fyn
  Fold-Shift /JAK2, Fyn: 2 fold
Hck
  Fold-Shift /JAK2, Hck: 3 fold
Lck
  Fold-Shift /JAK2, Lck: 5 fold
Lyn
  Fold-Shift /JAK2, Lyn: 4 fold
MLK1
  Fold-Shift /JAK2, MLK1: 18 fold
PRK2
  Fold-Shift /JAK2, PRK2: 13 fold
PTK5
  Fold-Shift /JAK2, PTK5: 8 fold
Ret
  Fold-Shift /JAK2, Ret: 3 fold
TrkA
  Fold-Shift /JAK2, TrkA: 1 fold
TrkB
  Fold-Shift /JAK2, TrkB: 8 fold
Yes
  Fold-Shift /JAK2, Yes: 7 fold
cSRC
  Fold-Shift /JAK2, cSRC: 1 fold
[1]; 54 mpk oral once daily for 3 days, cycle 1
  Reduction in spleen BLI over first 3 days of treatment: ~20 fold
[1]; 54 mpk oral once daily, Day 3, no further benefit out to Day 7
  Spleen BLI, splenic CD71+TER119+ cells and V617F allele burden in peripheral blood: Significant reductions in all three endpoints
[1]; 54 mpk, 2 cycles
  Spleen weight at end of second holiday period: normalization in spleen weight
[1]; 54 mpk, 2 cycles of 3 days on, 4 days off, decreased from 53%, vehicle 53% to 56%
  Hematocrit after 2 cycles: 42%
[1]; 54 mpk, end of second holiday period
  CD71+TER119+ cells in spleen relative to vehicle controls: significant reduction
[1]; 1 hour post-dose
  Level of pSTAT5 in spleens of JAK2V617F-Luciferase mice: significantly inhibited
[1]; 4 days after 3 days of 54 mpk, cycle 1
  Increase in spleen BLI over the 4 day holiday: ~4 fold
[1]; end of cycle 1 (3 days on, 4 days off), 54 mpk
  Spleen BLI after holiday, fold less than pre-treatment levels: about 5 fold
Spleen cell populations; [2]
  Decrease of splenic B220+ B-cells: 2 fold
  Decrease of splenic NK1.1+ cells: 25 fold
Spleen cell populations; intermittent dosing, 5 cycles of 3 days on and 4 days off
  Reduction of any of the splenic lymphocytes tested: ≤ 2 fold
Spleen cell populations; [3]
  Spleen B-Cells B220+: 30.9 ± 2.2 X10^6
  Spleen Cell Count: 53.2 ± 1.2 X10^6
  Spleen Myeloid Gr-1+ CD11b+: 0.67 ± 0.17 X10^6
  Spleen NK-Cells NK1.1+ NKG2D+: 1.2 ± 0.2* X10^6
  Spleen T-Cells CD4+: 6.5 ± 1.0* X10^6
  Spleen T-Cells CD8+: 4.0 ± 0.4* X10^6
  Spleen T-Cells Tregs CD25+CD127^lo: 0.4 ± 0.1 * X10^6
  Spleen Weight: 76.3 ± 4.7 mg
Spleen cell populations; [4]
  Spleen B-Cells B220+: 31.2 ± 6.9 X10^6
  Spleen B-Cells MZ-B-cells CD21^hiCD23^lo: 1.7 ± 0.4* X10^6
  Spleen Cell Count: 59.4 ± 20.3 X10^6
  Spleen Myeloid Gr-1+ CD11b+: 1.05 ± 0.76 X10^6
  Spleen NK-Cells NK1.1+ NKG2D+: 0.9 ± 0.3* X10^6
  Spleen T-Cells CD4+: 7.9 ± 1.9* X10^6
  Spleen T-Cells CD8+: 4.9 ± 1.1* X10^6
  Spleen T-Cells Tregs CD25+CD127^lo: 0.6 ± 0.2* X10^6
  Spleen Weight: 92.5 ± 29.8 mg
Spleen cell populations; 3 days
  Spleen B-Cells B220+: 24.2 ± 6.2* X10^6
  Spleen B-Cells MZ-B-cells CD21^hiCD23^lo: 0.2 ± 0.2* X10^6
  Spleen Cell Count: 36.2 ± 8.7* X10^6
  Spleen Myeloid Gr-1+ CD11b+: 0.25 ± 0.13* X10^6
  Spleen NK-Cells NK1.1+ NKG2D+: 0.10 ± 0.03* X10^6
  Spleen T-Cells CD4+: 4.9 ± 0.8* X10^6
  Spleen T-Cells CD8+: 4.7 ± 1.1* X10^6
  Spleen T-Cells Tregs CD25+CD127^lo: 0.3 ± 0.1* X10^6
  Spleen Weight: 50.5 ± 4.4* mg
Spleen cell populations; 6 days
  Spleen B-Cells B220+: 16.9 ± 8.7* X10^6
  Spleen B-Cells MZ-B-cells CD21^hiCD23^lo: 0.2 ± 0.2* X10^6
  Spleen Cell Count: 26.5 ± 3.1* X10^6
  Spleen Myeloid Gr-1+ CD11b+: 0.22 ± 0.09* X10^6
  Spleen NK-Cells NK1.1+ NKG2D+: 0.07 ± 0.04* X10^6
  Spleen T-Cells CD4+: 4.1 ± 1.7* X10^6
  Spleen T-Cells CD8+: 3.2 ± 1.5* X10^6
  Spleen T-Cells Tregs CD25+CD127^lo: 0.2 ± 0.1* X10^6
  Spleen Weight: 45.8 ± 7.6* mg
